Consider 20 compounds from patent US20150274719A1, “AMINO-SUBSTITUTED IMIDAZO[1,2-A]PYRIDINECARBOXAMIDES AND THEIR USE” (BAYER PHARMA AKTIENGESELLSCHAFT, priority 2012, published 2015).

Where a name gives a salt, the structure may show the parent alone.

The assay has as its target T1, recombinant guanylate cyclase reporter cell line (Rattus norvegicus, UniProt P19686+P20595).
T1 construct: expressed in transfected cells; host or cells: recombinant reporter cell line
T1 sequence (P19686 1-690): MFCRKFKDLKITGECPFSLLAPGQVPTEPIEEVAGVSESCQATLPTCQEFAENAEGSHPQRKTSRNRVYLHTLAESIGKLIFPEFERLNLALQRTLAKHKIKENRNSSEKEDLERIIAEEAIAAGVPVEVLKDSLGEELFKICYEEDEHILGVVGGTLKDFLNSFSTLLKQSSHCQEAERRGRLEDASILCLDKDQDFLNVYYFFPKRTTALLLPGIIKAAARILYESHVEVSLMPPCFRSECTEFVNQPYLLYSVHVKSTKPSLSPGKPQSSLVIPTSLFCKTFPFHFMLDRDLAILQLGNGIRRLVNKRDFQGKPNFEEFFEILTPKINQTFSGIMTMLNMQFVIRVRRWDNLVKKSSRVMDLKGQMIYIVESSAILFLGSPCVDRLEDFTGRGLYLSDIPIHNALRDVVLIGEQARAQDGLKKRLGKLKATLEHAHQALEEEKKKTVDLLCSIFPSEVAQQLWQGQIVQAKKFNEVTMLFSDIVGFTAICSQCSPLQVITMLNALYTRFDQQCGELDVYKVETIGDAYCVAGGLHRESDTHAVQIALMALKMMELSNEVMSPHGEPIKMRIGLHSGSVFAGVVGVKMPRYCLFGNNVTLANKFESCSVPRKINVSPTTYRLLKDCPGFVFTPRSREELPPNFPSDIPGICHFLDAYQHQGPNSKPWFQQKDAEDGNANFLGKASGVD
T1 sequence (P20595 1-619): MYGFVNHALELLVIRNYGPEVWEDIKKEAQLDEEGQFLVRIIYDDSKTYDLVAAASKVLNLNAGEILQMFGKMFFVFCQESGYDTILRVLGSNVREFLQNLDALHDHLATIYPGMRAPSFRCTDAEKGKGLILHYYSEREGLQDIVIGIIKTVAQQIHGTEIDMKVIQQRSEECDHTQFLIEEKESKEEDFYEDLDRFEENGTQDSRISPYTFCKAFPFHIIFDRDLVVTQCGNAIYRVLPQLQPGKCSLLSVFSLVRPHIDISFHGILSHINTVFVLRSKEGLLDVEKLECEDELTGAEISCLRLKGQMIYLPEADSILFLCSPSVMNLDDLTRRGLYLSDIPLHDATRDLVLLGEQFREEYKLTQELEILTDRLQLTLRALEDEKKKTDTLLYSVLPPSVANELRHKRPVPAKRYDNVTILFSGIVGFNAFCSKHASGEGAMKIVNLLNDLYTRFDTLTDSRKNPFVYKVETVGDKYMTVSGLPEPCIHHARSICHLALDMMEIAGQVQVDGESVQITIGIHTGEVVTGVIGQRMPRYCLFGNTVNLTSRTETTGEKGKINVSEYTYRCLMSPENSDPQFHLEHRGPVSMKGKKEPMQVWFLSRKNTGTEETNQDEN
As to the kind of experiment: Action on recombinant guanylate cyclase reporter cell line. It is filed as cell-based. Conditions: in some cases mean values from individual determinations. An outline of the steps: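 Read-out: MEC (minimal effective concentration) in cells. Reporter line carries recombinant sGC. Some values are averages of single runs.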
On to `Cc1cc(OCc2c(F)cccc2F)c2nc(C)c(C(=O)N[C@@H]3CC[C@](C)(N)C3(C)C)n2c1` [Example 324, N-[(1R,3S)-3-amino-2,2,3-trimethylcyclopentyl]-8-[(2,6-difluorobenzyl)oxy]-2,6-dimethylimidazo[1,2-a]pyridine-3-carboxamide], for which the “MEC (minimal effective concentration)” value came to 1.00 µM. Take `CCCc1nc2c(OCc3c(F)cccc3F)cc(C)cn2c1C(=O)NCC(C)(N)CC` (stereo not drawn) [Example 327, ent-N-(2-amino-2-methylbutyl)-8-[(2,6-difluorobenzyl)oxy]-6-methyl-2-propylimidazo[1,2-a]pyridine-3-carboxamide]: the “MEC (minimal effective concentration)” value was determined as 1.00 µM. Turning to `CCCC(C)(N)CNC(=O)c1c(CC)nc2c(OCc3c(F)cccc3F)cc(C)cn12` (stereo not drawn) [Example 338, ent-N-(2-amino-2-methylpentyl)-8-[(2,6-difluorobenzyl)oxy]-2-ethyl-6-methylimidazo[1,2-a]pyridine-3-carboxamide], the “MEC (minimal effective concentration)” value stood at 0.10 µM. In the case of `Cc1cc(OCc2c(F)cccc2F)c2nc(C)c(C(=O)NCC(C)(C)NCCO)n2c1` [Example 349, 8-[(2,6-Difluorobenzyl)oxy]-N-{2-[(2-hydroxyethyl)amino]-2-methylpropyl}-2,6-dimethylimidazo[1,2-a]pyridine-3-carboxamide], the “MEC (minimal effective concentration)” value is 1.00 µM.

In the case of `COc1cccc(F)c1COc1cc(C)cn2c(C(=O)NCC(C)(C)N)c(C)nc12` [Example 352, N-(2-amino-2-methylpropyl)-8-[(2-fluoro-6-methoxybenzyl)oxy]-2,6-dimethylimidazo[1,2-a]pyridine-3-carboxamide], the “MEC (minimal effective concentration)” value was found to be 3.00 µM.

For the compound `CCCC(C)(N)CNC(=O)c1c(C)nc2c(OCc3ccccc3Br)cc(C)cn12` (centres unmarked) [Example 353, N-(2-amino-2-methylpentyl)-8-[(2-bromobenzyl)oxy]-2,6-dimethylimidazo[1,2-a]pyridine-3-carboxamide], the “MEC (minimal effective concentration)” value came to 3.00 µM. In the case of `CCCC(C)(N)CNC(=O)c1cnc2c(OCc3c(F)cccc3F)cccn12` (stereo not drawn) [Example 354, ent-N-(2-amino-2-methylpentyl)-8-[(2,6-difluorobenzyl)oxy]imidazo[1,2-a]pyridine-3-carboxamide], the “MEC (minimal effective concentration)” value amounted to 3.00 µM. Turning to `C#Cc1cc(OCc2c(F)cccc2F)c2nc(C)c(C(=O)NCC(C)(N)CCC)n2c1` (stereo not drawn) [Example 355, ent-N-(2-amino-2-methylpentyl)-8-[(2,6-difluorobenzyl)oxy]-6-ethynyl-2-methylimidazo[1,2-a]pyridine-3-carboxamide Formate], the “MEC (minimal effective concentration)” value was 0.30 µM.

Regarding `CCCC(C)(N)CNC(=O)c1c(C)nc2c(OCc3c(F)ccc(C4CC4)c3F)cc(C)cn12` (stereo not drawn) [Example 359, ent-N-(2-amino-2-methylpentyl)-8-[(3-cyclopropyl-2,6-difluorobenzyl)oxy]-2,6-dimethylimidazo[1,2-a]pyridine-3-carboxamide], the “MEC (minimal effective concentration)” value amounted to 3.00 µM. On to `CCC(C)(N)CNC(=O)c1c(C)nc2c(OCc3c(F)ccc(OC)c3F)cc(C)cn12` (stereo not drawn) [Example 360, ent-N-(2-amino-2-methylbutyl)-8-[(2,6-difluoro-3-methoxybenzyl)oxy]-2,6-dimethylimidazo[1,2-a]pyridine-3-carboxamide], for which the “MEC (minimal effective concentration)” value was determined as 1.00 µM. `COc1ccc(F)c(COc2cc(C)cn3c(C(=O)NCC(C)(N)CF)c(C)nc23)c1F` (stereo not drawn) [Example 361, ent-N-(2-amino-3-fluoro-2-methylpropyl)-8-[(2,6-difluoro-3-methoxybenzyl)oxy]-2,6-dimethylimidazo[1,2-a]pyridine-3-carboxamide]: the “MEC (minimal effective concentration)” value turned out to be 1.00 µM.

`Cc1cc(OCc2c(F)ccc(C3CC3)c2F)c2nc(C)c(C(=O)NCC(C)(N)CF)n2c1` (centres unmarked) [Example 362, N-(2-amino-3-fluoro-2-methylpropyl)-8-[(3-cyclopropyl-2,6-difluorobenzyl)oxy]-2,6-dimethylimidazo[1,2-a]pyridine-3-carboxamide]: the “MEC (minimal effective concentration)” value is 1.00 µM. Consider `CCC(C)(N)CNC(=O)c1c(C)nc2c(OCc3c(F)ccc(C4CC4)c3F)cc(C)cn12` (stereo not drawn) [Example 363, ent-N-(2-amino-2-methylbutyl)-8-[(3-cyclopropyl-2,6-difluorobenzyl)oxy]-2,6-dimethylimidazo[1,2-a]pyridine-3-carboxamide], for which the “MEC (minimal effective concentration)” value is 3.00 µM. In the case of `CCCC(C)(N)CNC(=O)c1c(C)nc2c(OCc3c(F)ccc(OC)c3F)cc(C)cn12` (stereo not drawn) [Example 364, ent-N-(2-amino-2-methylpentyl)-8-[(2,6-difluoro-3-methoxybenzyl)oxy]-2,6-dimethylimidazo[1,2-a]pyridine-3-carboxamide], the “MEC (minimal effective concentration)” value stood at 0.30 µM. On to `Cc1cc(OCc2c(F)cccc2F)c2nc(C)c(C(=O)NC34CC5CC(CC(N)(C5)C3)C4)n2c1` [Example 365, N-(3-aminoadamantan-1-yl)-8-[(2,6-difluorobenzyl)oxy]-2,6-dimethylimidazo[1,2-a]pyridine-3-carboxamide Formate], for which the “MEC (minimal effective concentration)” value came out at 1.00 µM. As for `CCOC(=O)c1cccc(C(CN)NC(=O)c2c(C)nc3c(OCc4c(F)cccc4F)cc(C)cn23)n1` (centres unmarked) [Example 397], the “MEC (minimal effective concentration)” value was found to be 1.00 µM. As for `Cc1cc(OCc2c(F)cccc2F)c2nc(C)c(C(=O)NC(CN)c3ccc(C#N)cc3)n2c1` (centres unmarked) [Example 398], the “MEC (minimal effective concentration)” value worked out at 0.30 µM. In the case of `CCCC(C)(N)CNC(=O)c1c(C)nc2c(OCc3c(F)cccc3F)cc(CF)cn12` (stereo not drawn) [Example 403, ent-N-(2-amino-2-methylpentyl)-8-[(2,6-difluorobenzyl)oxy]-6-(fluoromethyl)-2-methylimidazo[1,2-a]pyridine-3-carboxamide], the “MEC (minimal effective concentration)” value came to 0.10 µM.

In the case of `CCC(C)(N)CNC(=O)c1c(C)nc2c(OCc3c(F)cccc3F)cc(CF)cn12` (centres unmarked) [Example 404], the “MEC (minimal effective concentration)” value was found to be 0.30 µM. On to `Cc1nc2c(OCc3c(F)cccc3F)cc(CF)cn2c1C(=O)NCC(C)(N)CF` (centres unmarked) [Example 405], for which the “MEC (minimal effective concentration)” value is 0.30 µM.
